Broadly, the LD50 is the dose at which mortality reaches 50%. Low values mean greater toxicity, high ones lower toxicity. By IC50 is commonly meant the concentration needed to halve the response being measured.

Structures are written as SMILES. In brackets after ≈: the same amount, converted by molar mass. Read-outs that look alike come from different tables or passages of the source.

These results are taken from patent US4791113A, “Mitomycin derivatives as antileukemia agents” (Kyowa Hakko Kogyo Kabushiki Kaisha, priority 1986, dated 1988).

The subject of one data set is Sarcoma 180 solid tumour. The format is in vivo, ddy mouse. The note with it: C.I.=(LD50)/(ED50), ED50 = dose at T/C=0.5, i.v. (tail vein), 7 days. The source says:
(§1) In this table, C.I. denotes chemotherapeutic index, calculated as C.I.=(LD50)/(ED50), wherein LD50 denotes the value of acute toxicity, and ED50 denotes the dose of a sample which is capable of reducing the volume of Sarcoma 180 solid tumour to 50% of the corresponding volume of the solid tumour of untreated group.
(§2) The test compound was abdominally administered once to ddy mice, each group consisting of 5 animals.
(§3) 5×10^6 cells of Sarcoma 180 solid tumour were abdominally implanted into a ddy mouse. 7 days after this, the cells were collected from the ascites fluid. The cells were washed once with physiological saline under sterile conditions and suspended in physiological saline to obtain a cell suspension containing 5×10^7 cells/ml of which 0.1 ml was implanted into a ddy male mouse (body weight 20±2 g) under the skin of the right armpit. The test compound was dissolved in physiological saline or the same solution containing Tween 80. 24 hours after implantation of the tumour cells, 0.1-0.2 ml of the solution containing the test compound was administered to the tail vein of each animal in the test group consisting of 5 animals. 7 days after the implantation, the major axis (a) and minor axis (b) of the tumour were measured to calculate the volume of the tumour as "a"×"b^2 "/2. The antitumour effect was indicated by T/C which is the ratio of the tumour volume in the test animals to the corresponding volume of the control (untreated) animals.
(§4) T/C ratios and the dose were respectively plotted on the ordinate using an arithmetic scale and on the abscissa using a logarithmic scale, the relationship between the dosage and the T/C ratio being converted to a straight line by the least squares method. From the straight tropic line thus-obtained, the dosage corresponding to a T/C=0.5 viz. ED50 was determined.

Data set [1] can be described thus: in vivo. Conditions: mouse, ip, single abdominal administration, ddy mice, 14 days, Behrens-Korber's method.
From the text: as §1, §2

Data set [2] in a line: in vivo. On the set-up: species or system mice (ddy strain). The note with it: mouse, ip, ratio of dose reducing peripheral leucocytes to 4000 (per mm^3; i.p., 4 days) to ED50 (Sarcoma 180), read-out: (WBC4000)/(ED50).
From the text: as §1, §3, §4
Sarcoma 180 solid tumour cells (5×10^6) were subcutaneously implanted under the skin of the right armpit of each mouse (body weight 20±2 g) of a group consisting of 5 male mice (ddy strain). 24 hours after this, a test compound was intraperitoneally administered to each animal. 4 days later, blood (0.02 ml) was collected from the suborbital plexus vein of each tumour-carrying animal. The collected sample of blood was dispersed in 9.98 ml of Cellkit Seven solution. One drop of saponin solution was added to the sample to dissolve erythrocytes and then a microcell counter was used to measure the number of leucocytes. On graph paper, the number of leucocytes was plotted on the ordinate using an arithmetic scale, and the dosage was plotted on the abscissa using a logarithmic scale to show the relationship of the dosage to the number of peripheral leucocytes, from which the value of WBC4000 viz. a value capable of giving 4000 peripheral leucocytes per mm^3 (about half of the corresponding value in normal mice) was obtained.

For the next data set, the system named is Hela S3 cultured cells. Put plainly: Effects upon Hela S3 cultured cells. In kind it is cell-based. Conditions: Homo sapiens. Here is the method:
Table 3 indicates the effects of typical Compounds (I) against Hela S3 culture cells. In this table, IC50 denotes the concentration of the test compound capable of reducing the number of cells to 50% the number of untreated cells.
Cultured cells of Hela S3 were added to a MEM medium containing 10% (V/V) of bovine fetal serum and […] of glutamine to obtain a cell suspension of 3×10^4 cells/ml. The cell suspension was poured into each well (1 ml/well) of a 24 well-multiplate for culturing at 37° C. in an incubator containing carbon dioxide (5%) and air (95%). After 24 hours, samples were dissolved or suspended in PBS, ethanol or dimethylsulfoxide and added to the medium at different concentrations, followed by culturing at 37° C. for 72 hours in the same incubator. An aspirator was used to collect the medium from each well. The surface of each medium was washed by adding PBS (1 ml) gently, and then PBS was sucked out. PBS containing trypsin (0.05%) and EDTA (0.02%) was poured into each well. After pipetting, the number of cells in each suspension was counted by the use of a microcell counter (commercial product of Toa Iyo Denshi K.K., Japan). By reference to a curve showing the concentration vs. the number of cells, the IC50 (concentration of sample capable of reducing the number of cells to 50% of the number of control untreated cells) was measured.

As to `CO[C@@]12[C@H](COC(N)=O)c3c(O)c(N=O)c(C)c(OS(=O)(=O)c4ccc(C)cc4)c3N1C[C@@H]1N[C@@H]12` [Example 15, [1aS-(1aα,8β,8aα,8bα)]-8-{[(aminocarbonyl)oxy]methyl}-1,1a,2,8,8a,8b-hexahydro-7-hydroxy-8a-methoxy-5-methyl-6-nitroso-4-[(p-toluenesuIfonyl)oxy]azirino[2',3':3,4]pyrrolo[1,2-a]indole], in the data set on Sarcoma 180 solid tumour, the “C.I. (chemotherapeutic index)” value turned out to be 2.6. In the data set “in vivo [1]”, this molecule registered an LD50 at 336 h of 56 mg/kg. In “in vivo [2]”, the selectivity ratio turned out to be 3.9. Also, the concentration for half-maximal inhibition (IC50) in the data set with Hela S3 cultured cells (HeLa S3, 72 h) came out at 0.027 µg/mL (≈ 0.0535 µM).

`COc1c(C)c(N=O)c(O)c2c1N1C[C@@H]3N[C@@H]3[C@]1(OC)[C@@H]2CO` [Example 9, [1aS-(1aα, 8β, 8aα, 8bα)]-4,8a-dimethoxy-1,1a,2,8,8a,8b-hexahydro-7-hydroxy-8-hydroxymethyl-5-methyl-6-nitroso-azirino[2',3':3,4]pyrrolo [1,2-a]indole] gave an IC50 in the data set with Hela S3 cultured cells (HeLa S3, 72 h) of 0.005 µg/mL (≈ 0.0156 µM).

For the molecule `CO[C@@]12[C@H](COC(N)=O)c3c(O)c(N=NC(=S)SC)c(C)c(O)c3N1C[C@@H]1N[C@@H]12` [Example 31], in the data set with Sarcoma 180 solid tumour, the “C.I. (chemotherapeutic index)” value is 2.5. Moreover, the median lethal dose (LD50) at 336 h in “in vivo [1]” is 50 mg/kg. Also, the selectivity ratio in the data set “in vivo [2]” was found to be 1.1.

Take `CO[C@@]12[C@H](COC(N)=O)c3c(O)c(N=NC(N)=O)c(C)c(O)c3N1C[C@@H]1N[C@@H]12` [Example 25]: the midpoint of inhibition with Hela S3 cultured cells (HeLa S3, 72 h), the IC50, lay at 0.003 µg/mL (≈ 0.00765 µM).

The molecule `CO[C@@]12[C@H](CO)c3c(O)c(N=NC(=O)c4ccccc4)c(C)c(O)c3N1C[C@H]1[C@@H]2N1C` (stereo partly drawn) [Example 22, [1aS-(1aα,8β,8aα,8bα)]-6-[(benzoyl)azo]-4,7-dihydroxy-1,5-dimethyl-1,1a,2,8,8a,8b-hexahydro-8-hydroxymethyl-8a-methoxy-azirino-[2',3':3,4[pyrrolo]1,2-a]indole] showed an IC50 with Hela S3 cultured cells (HeLa S3, 72 h) of 0.131 µg/mL (≈ 0.309 µM).

In turn, `COc1c(C)c(N=O)c(O)c2c1N1C[C@H]3[C@H](N3C)[C@]1(OC)[C@@H]2COC(N)=O` (stereo partly drawn) [Example 7, [1aS-(1aα, 8α, 8aα, 8bα)]-8-{[(aminocarbonyl)oxy]methyl}-4,8a-dimethoxy-1,5-dimethyl-1,1a,2,8,8a,8b-hexahydro-7-hydroxy-6-nitroso-azirino-[2',3':3,4]-pyrrolo[1,2-a]indole] yielded a half-inhibitory concentration (IC50) in the data set with Hela S3 cultured cells (HeLa S3, 72 h) of 0.013 µg/mL (≈ 0.0344 µM).

Turning to `COc1c(N=O)c(C)c(OC)c2c1[C@@H](COC(N)=O)[C@@]1(OC)[C@H]3N[C@H]3CN21` [Example 8, [1aS-(1aα, 8β, 8aα, 8bα)]-8-{[(aminocarbonyl)oxy]methyl}-1,1a,2,8,8a,8b-hexahydro-5-methyl-6-nitroso-4,7,8a-trimethoxy-azirino [2',3':3,4]pyrrolo[1,2-a]indole], in the data set on Sarcoma 180 solid tumour, the “C.I. (chemotherapeutic index)” value is listed as 2.1. Besides, the LD50 at 336 h in “in vivo [1]” worked out at 100 mg/kg. Besides, in the data set “in vivo [2]”, the selectivity ratio was 1.1. In the data set on Hela S3 cultured cells (HeLa S3, 72 h), this molecule had an IC50 of 0.2 µg/mL (≈ 0.529 µM).

As for `CO[C@@]12[C@H](COC(N)=O)c3c(O)c(N=NC4=NCCN4)c(C)c(O)c3N1C[C@@H]1N[C@@H]12` [Example 23, [1aS-(1aα,8β, 8aα,8bα)]-8-{[(aminocarbonyl)oxy]methyl}-4,7-dihydroxy-1,1a,2,8,8a,8b-hexahydro-6[(2"- imidazolinyl)azo]-8a-methoxy-5-methyl-azirino[2',3':3,4]pyrrolo[1,2-a]indol], in the data set with Sarcoma 180 solid tumour, the “C.I. (chemotherapeutic index)” value is recorded as over 0.6. Moreover, the LD50 at 336 h in “in vivo [1]” is over 100 mg/kg. Also, the selectivity ratio in the data set “in vivo [2]” came out at 0.5. The molecule also returned a concentration for half-maximal inhibition (IC50) in the data set with Hela S3 cultured cells (HeLa S3, 72 h) of 0.162 µg/mL (≈ 0.388 µM).

Consider `CO[C@@]12[C@H](COC(N)=O)C3=C(C(=O)C(C)=C(N)C3=O)N1C[C@@H]1N[C@@H]12` [mitomycin C, reference compound], for which the IC50 in the data set on Hela S3 cultured cells (concentration reducing number of Hela S3 cells to 50% of untreated, 72 hours at 37° C., read-out: IC50) amounted to 0.004 µg/mL (≈ 0.012 µM).

In the data set “in vivo [1]”, `COC(=O)N=Nc1c(C)c(O)c2c(c1O)[C@@H](COC(N)=O)[C@@]1(OC)[C@H]3N[C@H]3CN21` [Example 24] returned a 50% lethal dose (LD50) at 336 h of over 100 mg/kg. Moreover, in the data set on Hela S3 cultured cells (HeLa S3, 72 h), the half-inhibitory concentration (IC50) stood at 0.012 µg/mL (≈ 0.0295 µM).

In the data set with Hela S3 cultured cells (HeLa S3, 72 h), `CO[C@@]12[C@H](COC(N)=O)c3c(O)c(N=NC(=O)c4ccccc4)c(C)c(O)c3N1C[C@@H]1N[C@@H]12` [Example 17, [1aS-(1aα,8β,8aα,8bα)]-8-{[(aminocarbonyl)oxy]methyl}-6-[(benzoyl)azo-]-4,7-dihydroxy-1,1a,2,8,8a,8b-hexahydro-8a-methoxy-5-methyl-azirino-[2',3':3,4]pyrrolo[1,2-a]indole] had a concentration for half-maximal inhibition (IC50) of 14.9 µg/mL (≈ 32.9 µM).

Take `CO[C@@]12[C@H](CO)c3c(O)c(N=O)c(C)c(O)c3N1C[C@@H]1N[C@@H]12` [Example 4, [1aS-(1aα, 8β, 8aα, 8bα)]-4,7-dihydroxy-1,1a,2,8,8a,8b-hexahydro-8-hydroxymethyl-8a-methoxy-5-methyl-6-nitroso-azirino [2',3':3,4]pyrrolo[1,2-a]indole]: the “C.I. (chemotherapeutic index)” value in the data set on Sarcoma 180 solid tumour was 2.8. For the same molecule, the LD50 at 336 h in the data set “in vivo [1]” was found to be 100 mg/kg. Besides, the selectivity ratio in the data set “in vivo [2]” is over 1.4.

On to `CO[C@@]12[C@H](COC(N)=O)c3c(O)c(N=O)c(C)c(O)c3N1C[C@@H]1N[C@@H]12` [Example 1, [1aS-(1aα,8β,8aα,8bα)]-8-{[(aminocarbonyl)oxy]methyl}-4,7-dihydroxy-1,1a,2,8,8a,8b-hexahydro-8a-methoxy-5-methyl-6-nitroso-azirino[2',3':3,4]pyrrolo[1,2-a]indole], for which the “C.I. (chemotherapeutic index)” value in the data set on Sarcoma 180 solid tumour was found to be 2.0. The LD50 at 336 h in the data set “in vivo [1]” was found to be 53 mg/kg. For the same molecule, the selectivity ratio in the data set “in vivo [2]” was determined as 0.7. For the same molecule, the IC50 in the data set on Hela S3 cultured cells (HeLa S3, 72 h) is 1.14 µg/mL (≈ 3.24 µM).

The molecule `CO[C@@]12[C@H](COC(N)=O)c3c(O)c(N=NC(=O)c4ccccc4O)c(C)c(O)c3N1C[C@@H]1N[C@@H]12` [Example 28, [1aS-(1aα,8β,8aα,8bα)]-8-{[(aminocarbonyl)oxy]methyl}-4,7-dihydroxy-1,1a,2,8,8a,8b-hexahydro-6-[(2"-hydroxybenzoyl)azo]-8a-methoxy-5-methyl-azirino [2',3':3,4]pyrrolo[1,2-a]indole] had a half-inhibitory concentration (IC50) in the data set with Hela S3 cultured cells (HeLa S3, 72 h) of 0.08 µg/mL (≈ 0.17 µM).

In the data set with Hela S3 cultured cells (HeLa S3, 72 h), `CO[C@@]12[C@H](COC(N)=O)c3c(O)c(N=NC(C)=O)c(C)c(O)c3N1C[C@@H]1N[C@@H]12` [Example 18, [1aS-(1aα,8β,8aα,8bα)]-6-[(acetyl)azo]-8-{[(aminocarbonyl)oxy]methyl}-4,7-dihydroxy-1,1a,2,8,8a,8b-hexahydro-8a-methoxy-5-methyl-azirino[2',3':3,4]pyrrolo[1,2-a]indole] had an IC50 of 0.54 µg/mL (≈ 1.38 µM).

As to `CO[C@@]12[C@H](COC(N)=O)c3c(O)c(N=NC(=O)c4ccccc4)c(C)c(O)c3N1C[C@H]1[C@@H]2N1C` (stereo partly drawn) [Example 21, [1aS-(1aα,8β,8aα,8bα)]-8-{[(aminocarbonyl)oxy]methyl}-6-[(benzoyl)azo]-4,7-dihydroxy-1,5-dimethyl-1,1a,2,8,8a,8b-hexahydro-8a-methoxy-azirino[2',3':3,4]pyrrolo[1,2-a]indole], in the data set on Sarcoma 180 solid tumour, the “C.I. (chemotherapeutic index)” value is over 1.0. In addition, in the data set “in vivo [1]”, the LD50 at 336 h was over 100 mg/kg. Moreover, in “in vivo [2]”, the selectivity ratio was determined as 0.62. Moreover, the IC50 in the data set with Hela S3 cultured cells (HeLa S3, 72 h) turned out to be 0.75 µg/mL (≈ 1.6 µM).

Regarding `CO[C@@]12[C@H](COC(N)=O)c3c(O)c(N=O)c(C)c(OCC(C)C)c3N1C[C@@H]1N[C@@H]12` [Example 13, [1aS-(1aα, 8β, 8aα, 8bα)]-8-{[(aminocarbonyl)oxy]methyl}-1,1a,2,8,8a,8b-hexahydro-7-hydroxy-4-isobutyloxy-8a-methoxy-5-methyl-6-nitroso-azirino[2',3':3,4]pyrrolo[1,2-a]indole], the “C.I. (chemotherapeutic index)” value in the data set with Sarcoma 180 solid tumour was over 0.74. The molecule further displayed a median lethal dose (LD50) at 336 h in the data set “in vivo [1]” of over 100 mg/kg. Also, in “in vivo [2]”, the selectivity ratio was over 0.74.
